Results: US20240132431A1, “METHOD FOR ALKYLATING ACIDIC FUNCTIONAL GROUP” (Chugai Seiyaku Kabushiki Kaisha, priority 2021, published 2024)

Biological target: T1, Bcl-2 protein (Recombinant Human Bcl-2 Protein) (Homo sapiens, UniProt P10415)
T1 construct: purchased Novus NBP2-34889
Test: Binding evaluation of mixture library compounds to Bcl-2 using AS-MS (affinity selection mass spectrometry)
Conditions: for ASMS ratio (%) n = 1 / ASMS ratio (%) n = 2: AS-MS, mixture library, Bcl-2, ASMS Ratio(%)=(A−C)/B×100; for ASMS ratio (%) n = 1: replicate n = 1; for ASMS ratio (%) n = 2: replicate n = 2
Method in brief: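 Pooled library of ~1200 compounds ([…] each, final) incubated with recombinant human Bcl-2 (20 μM final) in Tris-HCl pH 7.4, NaCl, Tween-20, DTT buffer, dark, 23° C., 1 h. Bound fraction recovered by SEC spin column, organic extraction, reversed-phase LC/MS. ASMS Ratio (%) = (A−C)/B×100 versus protein-free standard and SEC blank.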

T1 sequence (P10415 whole entry): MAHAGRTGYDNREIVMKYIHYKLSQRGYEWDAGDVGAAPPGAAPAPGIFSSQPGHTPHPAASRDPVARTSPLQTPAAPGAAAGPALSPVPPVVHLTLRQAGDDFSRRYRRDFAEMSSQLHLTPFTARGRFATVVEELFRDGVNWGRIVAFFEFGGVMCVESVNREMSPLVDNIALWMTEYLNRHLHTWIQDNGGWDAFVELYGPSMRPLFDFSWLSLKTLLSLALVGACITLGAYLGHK

SMILES	ASMS ratio (%) n = 1 [%]	ASMS ratio (%) n = 2 [%]	ASMS ratio (%) (n = 1)	ASMS ratio (%) (n = 2)
CCOc1cncc(-c2cc(CN3CCN(c4ccc(C(=O)NS(=O)(=O)c5ccc(NCCSc6ccccc6)c([N+](=O)[O-])c5)nn4)CC3)cc(C(F)(F)F)c2)c1 [B2Q088-01, 6-[4-[[3-(5-Ethoxypyridin-3-yl)-5-(trifluoromethyl)phenyl]methyl]piperazin-1-yl]-N-[3-nitro-4-(2-phenylsulfanylethylamino)phenyl]sulfonylpyridazine-3-carboxamide]	13.8	9.1		
CCOc1cccc(-c2cc(CN3CCN(c4ccc(C(=O)NS(=O)(=O)c5ccc(NCCSc6ccccc6)c([N+](=O)[O-])c5)nn4)CC3)cc(OC(F)(F)F)c2)c1 [B2Q089-01, 6-[4-[[3-(3-Ethoxyphenyl)-5-(trifluoromethoxy)phenyl]methyl]piperazin-1-yl]-N-[3-nitro-4-(2-phenylsulfanylethylamino)phenyl]sulfonylpyridazine-3-carboxamide]	25.0	15.0		
CCOc1cncc(-c2cc(CN3CCN(c4ccc(C(=O)NS(=O)(=O)c5ccc(NCCSc6ccccc6)c([N+](=O)[O-])c5)nn4)CC3)cc(OC(F)(F)F)c2)c1 [B2Q090-01, 6-[4-[[3-(5-Ethoxypyridin-3-yl)-5-(trifluoromethoxy)phenyl]methyl]piperazin-1-yl]-N-[3-nitro-4-(2-phenylsulfanylethylamino)phenyl]sulfonylpyridazine-3-carboxamide]	21.8	13.2		
CCOc1cccc(-c2ccc(CN3CCN(c4ccc(C(=O)NS(=O)(=O)c5ccc(NCCSc6ccccc6)c([N+](=O)[O-])c5)nn4)CC3)c3ccccc23)c1 [B2Q091-01, 6-[4-[[4-(3-Ethoxyphenyl)naphthalen-1-yl]methyl]piperazin-1-yl]-N-[3-nitro-4-(2-phenylsulfanylethylamino)phenyl]sulfonylpyridazine-3-carboxamide]	17.2	−5.0		
CCOc1cncc(-c2ccc(CN3CCN(c4ccc(C(=O)NS(=O)(=O)c5ccc(NCCSc6ccccc6)c([N+](=O)[O-])c5)nn4)CC3)c3ccccc23)c1 [B2Q092-01]	10.4	4.8		
CCOc1cncc(-c2csc(CN3CCN(c4ccc(C(=O)NS(=O)(=O)c5ccc(NCCSc6ccccc6)c([N+](=O)[O-])c5)nn4)CC3)c2)c1 [B2Q094-01, 6-[4-[[4-(5-Ethoxypyridin-3-yl)thiophen-2-yl]methyl]piperazin-1-yl]-N-[3-nitro-4-(2-phenylsulfanylethylamino)phenyl]sulfonylpyridazine-3-carboxamide]	7.2	2.5		
CCOc1cccc(C#Cc2ccccc2CN2CCN(c3ccc(C(=O)NS(=O)(=O)c4ccc(NCCSc5ccccc5)c([N+](=O)[O-])c4)nn3)CC2)c1 [B2Q095-01]	19.9	11.9		
CCOc1cccc(-c2ccc(C(C)N3CCN(c4ccc(C(=O)NS(=O)(=O)c5ccc(NCCSc6ccccc6)c([N+](=O)[O-])c5)cc4)CC3)c(F)c2)c1 (stereo not drawn) [B2Q099-01, 4-[4-[1-[4-(3-Ethoxyphenyl)-2-fluorophenyl]ethyl]piperazin-1-yl]-N-[3-nitro-4-(2-phenylsulfanylethylamino)phenyl]sulfonylbenzamide]		0.0		
CCOc1cncc(-c2ccc(C(C)N3CCN(c4ccc(C(=O)NS(=O)(=O)c5ccc(NCCSc6ccccc6)c([N+](=O)[O-])c5)cc4)CC3)c(F)c2)c1 (stereo not drawn) [B2Q100-01, 4-[4-[1-[4-(5-Ethoxypyridin-3-yl)-2-fluorophenyl]ethyl]piperazin-1-yl]-N-[3-nitro-4-(2-phenylsulfanylethylamino)phenyl]sulfonylbenzamide]	0.0	10.7		
CCOc1cncc(-c2csc(C(=O)N3CCN(c4ccc(C(=O)NS(=O)(=O)c5ccc(NCCSc6ccccc6)c(C(F)(F)F)c5)nn4)CC3)c2)c1 [B2R002-01, 6-[4-[4-(5-Ethoxypyridin-3-yl)thiophene-2-carbonyl]piperazin-1-yl]-N-[4-(2-phenylsulfanylethylamino)-3-(trifluoromethyl)phenyl]sulfonylpyridazine-3-carboxamide]			0.0	0.0
CCOc1cccc(-c2ccc(C(=O)N3CCN(c4ccc(C(=O)NS(=O)(=O)c5ccc(NCCSc6ccccc6)c(C(F)(F)F)c5)nn4)CC3)cc2C)c1 [B2R003-01, 6-[4-[4-(3-Ethoxyphenyl)-3-methylbenzoyl]piperazin-1-yl]-N-[4-(2-phenylsulfanylethylamino)-3-(trifluoromethyl)phenyl]sulfonylpyridazine-3-carboxamide]			21.6	0.0
CCOc1cncc(-c2ccc(C(=O)N3CCN(c4ccc(C(=O)NS(=O)(=O)c5ccc(NCCSc6ccccc6)c(C(F)(F)F)c5)nn4)CC3)cc2C)c1 [B2R004-01, 6-[4-[4-(5-Ethoxypyridin-3-yl)-3-methylbenzoyl]piperazin-1-yl]-N-[4-(2-phenylsulfanylethylamino)-3-(trifluoromethyl)phenyl]sulfonylpyridazine-3-carboxamide]			0.0	0.0
CCOc1cccc(-c2ccc(C(=O)N3CCN(c4ccc(C(=O)NS(=O)(=O)c5ccc(NCCSc6ccccc6)c(C(F)(F)F)c5)nn4)CC3)cc2F)c1 [B2R005-01, 6-[4-[4-(3-ethoxyphenyl)-3-fluorobenzoyl]piperazin-1-yl]-N-[4-(2-phenylsulfanylethylamino)-3-(trifluoromethyl)phenyl]sulfonylpyridazine-3-carboxamide]			44.0	39.5
CCOc1cccc(C#Cc2ccccc2C(=O)N2CCN(c3ccc(C(=O)NS(=O)(=O)c4ccc(NCCSc5ccccc5)c(C(F)(F)F)c4)nn3)CC2)c1 [B2R007-01, 6-[4-[2-[2-(3-Ethoxyphenyl)ethynyl]benzoyl]piperazin-1-yl]-N-[4-(2-phenylsulfanylethylamino)-3-(trifluoromethyl)phenyl]sulfonylpyridazine-3-carboxamide]			0.0	
CCOc1cncc(C#Cc2ccccc2C(=O)N2CCN(c3ccc(C(=O)NS(=O)(=O)c4ccc(NCCSc5ccccc5)c(C(F)(F)F)c4)nn3)CC2)c1 [B2R008-01, 6-[4-[2-[2-(5-Ethoxypyridin-3-yl)ethynyl]benzoyl]piperazin-1-yl]-N-[4-(2-phenylsulfanylethylamino)-3-(trifluoromethyl)phenyl]sulfonylpyridazine-3-carboxamide]			0.0	19.5
CCOc1cccc(C#Cc2cncc(C(=O)N3CCN(c4ccc(C(=O)NS(=O)(=O)c5ccc(NCCSc6ccccc6)c(C(F)(F)F)c5)nn4)CC3)c2)c1 [B2R009-01, 6-[4-[5-[2-(3-Ethoxyphenyl)ethynyl]pyridine-3-carbonyl]piperazin-1-yl]-N-[4-(2-phenylsulfanylethylamino)-3-(trifluoromethyl)phenyl]sulfonylpyridazine-3-carboxamide]			0.0	19.5
CCOc1cncc(C#Cc2cncc(C(=O)N3CCN(c4ccc(C(=O)NS(=O)(=O)c5ccc(NCCSc6ccccc6)c(C(F)(F)F)c5)nn4)CC3)c2)c1 [B2R010-01, 6-[4-[5-[2-(5-Ethoxypyridin-3-yl)ethynyl]pyridine-3-carbonyl]piperazin-1-yl]-N-[4-(2-phenylsulfanylethylamino)-3-(trifluoromethyl)phenyl]sulfonylpyridazine-3-carboxamide]			0.0	0.0
CCOc1cccc(-c2ccccc2CCC(=O)N2CCN(c3ccc(C(=O)NS(=O)(=O)c4ccc(NCCSc5ccccc5)c(C(F)(F)F)c4)nn3)CC2)c1 [B2R011-01, 6-[4-[3-[2-(3-Ethoxyphenyl)phenyl]propanoyl]piperazin-1-yl]-N-[4-(2-phenylsulfanylethylamino)-3-(trifluoromethyl)phenyl]sulfonylpyridazine-3-carboxamide]			17.7	−1.3
CCOc1cncc(-c2ccccc2CCC(=O)N2CCN(c3ccc(C(=O)NS(=O)(=O)c4ccc(NCCSc5ccccc5)c(C(F)(F)F)c4)nn3)CC2)c1 [B2R012-01, 6-[4-[3-[2-(5-Ethoxypyridin-3-yl)phenyl]propanoyl]piperazin-1-yl]-N-[4-(2-phenylsulfanylethylamino)-3-(trifluoromethyl)phenyl]sulfonylpyridazine-3-carboxamide]			15.8	13.5
CCOc1cccc(-c2ccc(C(=O)N3CCN(c4ccc(C(=O)NS(=O)(=O)c5ccc(NCCSc6ccccc6)c(C(F)(F)F)c5)nn4)CC3)c3ccccc23)c1 [B2R013-01, 6-[4-[4-(3-Ethoxyphenyl)naphthalene-1-carbonyl]piperazin-1-yl]-N-[4-(2-phenylsulfanylethylamino)-3-(trifluoromethyl)phenyl]sulfonylpyridazine-3-carboxamide]			7.5	7.7
CCOc1cncc(-c2ccc(C(=O)N3CCN(c4ccc(C(=O)NS(=O)(=O)c5ccc(NCCSc6ccccc6)c(C(F)(F)F)c5)nn4)CC3)c3ccccc23)c1 [B2R014-01, 6-[4-[4-(5-Ethoxypyridin-3-yl)naphthalene-1-carbonyl]piperazin-1-yl]-N-[4-(2-phenylsulfanylethylamino)-3-(trifluoromethyl)phenyl]sulfonylpyridazine-3-carboxamide]			18.6	15.1
CCOc1cccc(-c2cc(C(=O)N3CCN(c4ccc(C(=O)NS(=O)(=O)c5ccc(NCCSc6ccccc6)c(C(F)(F)F)c5)nn4)CC3)cc(C(C)(C)C)c2)c1 [B2R015-01, 6-[4-[3-tert-Butyl-5-(3-ethoxyphenyl)benzoyl]piperazin-1-yl]-N-[4-(2-phenylsulfanylethylamino)-3-(trifluoromethyl)phenyl]sulfonylpyridazine-3-carboxamide]			9.7	0.0
